Reference: publication PMC8564858, “Flavonoid-based inhibitors of the Phi-class glutathione transferase from black-grass to combat multiple herbicide resistance” (Organic & Biomolecular Chemistry, 2021)

Key:
AmGSTF1 [1] = assay: Thermal shift assay; type: binding, Alopecurus myosuroides; details: difference in melting temperature compared to no ligand
AmGSTF1 [2] = assay: CDNB assay: inhibition of AmGSTF1-catalysed glutathionylation of CDNB; type: biochemical, Alopecurus myosuroides; details: for CDNB Assay % Inhibition: three replicate measurements

Row | Structure (SMILES) | Thermal Shift Assay ∆Tm (AmGSTF1 [1]; 1 µM) | Thermal Shift Assay ∆Tm (AmGSTF1 [1]; 10 µM) | Thermal Shift Assay ∆Tm (AmGSTF1 [1]; 100 µM) | CDNB Assay % Inhibition (AmGSTF1 [2]; 10 µM compound) | CDNB Assay % Inhibition (AmGSTF1 [2]; 100 µM compound) | Inhibitory activity toward AmGSTF1 in the CDNB assay (in words) (AmGSTF1 [2]) | CDNB Assay % Inhibition (AmGSTF1 [2]; 1 µM compound)
1 | COc1cc(OC)c2c(=O)cc(C(=O)Nc3ccccc3)oc2c1 [16a] | 0.17 | 0.03 | 0.03 | 26% | 49% |  | 
2 | COc1cc(NC(=O)c2cc(=O)c3c(OC)cc(OC)cc3o2)cc(OC)c1 [16b] | 0.20 | 0.50 | 0.13 | 19% | 56% |  | 
3 | COc1cc(OC)c2c(=O)cc(C(=O)Nc3ccc(C)cc3)oc2c1 [16c] | 0.20 | 0.10 | 0.33 | 33% | 64% |  | 
4 | COc1cc(OC)c2c(=O)cc(N3CCN(C)CC3)oc2c1 [17a] | 0 | -0.03 | 0.20 |  | 16% |  | 
5 | COc1cc(OC)c2c(=O)cc(N3CCOCC3)oc2c1 [17b] | 0.06 | 0.23 | 0.20 | 0% | 37% |  | 
6 | COc1cc(OC)c2c(=O)cc(N3CCCCC3)oc2c1 [17c] | 0.23 | 0.13 | 0.30 | 12% | 67% |  | 
7 | COc1cc(OC)c2c(=O)cc(NCCCO)oc2c1 [17d] | 0.23 | 0.17 | 0.07 |  | 12% |  | 
8 | COc1cc(OC)c2c(=O)cc(-c3ccccc3)oc2c1 [18a] | 0.23 | 0.33 | 0.3 | 20% | 70% |  | 
9 | COc1cc(OC)c2c(=O)cc(-c3ccc(F)cc3)oc2c1 [18b] | 0.17 | 0.33 | 0.27 | 23% | 78% |  | 
10 | COc1ccc(-c2cc(=O)c3c(OC)cc(OC)cc3o2)cc1 [18c] | 0.23 | 0.17 | 0.70 | 15% | 100% |  | 
11 | COc1cc(OC)c2c(=O)cc(-c3cccc(-c4ccccc4)c3)oc2c1 [18d] | 0.13 | 0.13 | -0.1 | 12% | 87% |  | 
12 | CCc1ccc(-c2cc(=O)c3c(OC)cc(OC)cc3o2)cc1 [18e] |  | 0.10 | 0 | 11% | 80% |  | 
13 | COc1cccc(-c2cc(=O)c3c(OC)cc(OC)cc3o2)c1 [18f] | 0.33 | 0.2 | -0.17 | 15% | 79% |  | 
14 | COc1cc(OC)c2c(=O)cc(-c3ccc(OC)c(OC)c3)oc2c1 [18g] | 0.30 | -0.03 | 0.17 | 11% | 100% |  | 
15 | COc1cc(OC)c2c(=O)cc(-c3ccc4c(c3)OCO4)oc2c1 [18h] | 0.27 | 0.17 | 0.33 | 12% | 33% |  | 
16 | COC(=O)c1ccc(-c2cc(=O)c3c(OC)cc(OC)cc3o2)cc1 [18i] | 0.27 | 0.30 | 0.27 | 20% | 58% |  | 
17 | COc1cc(OC)c2c(=O)cc(-c3ccccc3C)oc2c1 [18j] | -0.13 | -0.03 | -0.03 | 9% | 36% |  | 
18 | COc1cc(OC)c2c(=O)cc(-c3cccc(S(C)(=O)=O)c3)oc2c1 [18k] | 0.20 | 0.10 | 0.30 | 11% | 60% |  | 
19 | COc1cc(OC)c2c(=O)cc(-c3ccc(S(C)(=O)=O)cc3)oc2c1 [18l] | 0.13 | 0.20 | 0.30 | 14% | 35% |  | 
20 | COc1cc(OC)c2c(=O)cc(-c3ccncc3)oc2c1 [18m] | 0.23 | 0.27 | 0.23 | 10% | 50% |  | 
21 | COc1cc(OC)c2c(=O)cc(-c3cnnc(C)c3)oc2c1 [18n] | -0.07 | -0.13 | -0.33 | 8% | 64% |  | 
22 | O=c1cc(-c2ccccc2)oc2cc(O)cc(O)c12 [compound 2, 5,7-dihydroxyflavone, reference compound] | 0.1 | 0.1 | 0.2 | 47% | 96% |  | 
23 | O=c1cc(-c2ccccc2)oc2ccc(O)cc12 [compound 4, reference compound] | 0.4 | 0.0 | -0.2 |  | 61% |  | 
24 | O=c1c(-c2ccc(O)cc2)coc2cc(O)cc(O)c12 [compound 5, reference compound] |  |  |  |  | 47% |  | 
25 | COc1ccc(-c2coc3cc(O)ccc3c2=O)cc1 [compound 6, reference compound] |  |  |  |  | 41% |  | 
26 | O=c1cc(-c2ccccc2)oc2ccccc12 [compound 7, reference compound] | 0.3 | 0.0 | -0.2 |  | 14% |  | 

Row | Structure (SMILES) | Thermal Shift Assay ∆Tm (AmGSTF1 [1]; 1 µM) | Thermal Shift Assay ∆Tm (AmGSTF1 [1]; 10 µM) | Thermal Shift Assay ∆Tm (AmGSTF1 [1]; 100 µM) | CDNB Assay % Inhibition (AmGSTF1 [2]; 10 µM compound) | CDNB Assay % Inhibition (AmGSTF1 [2]; 100 µM compound) | Inhibitory activity toward AmGSTF1 in the CDNB assay (in words) (AmGSTF1 [2]) | CDNB Assay % Inhibition (AmGSTF1 [2]; 1 µM compound)
27 | O=C1c2c(O)cc(O)cc2O[C@H](c2ccc(O)c(O)c2)[C@H]1O [compound 8, reference compound] |  |  |  |  | 18% |  | 
28 | Oc1cc(O)c2c(c1)OC(c1ccc(O)c(O)c1)C(O)C2 (centres unmarked) [compound 10, catechin, reference compound] |  |  |  |  | 0% | no inhibition | 
29 | Cc1cc(=O)c2c(O)cc(O)cc2o1 [compound 12] |  |  |  |  | 63% | reduced inhibitory activity | 
30 | COc1cc(OC)c2c(=O)cc(-c3nnc(C)o3)oc2c1 [compound 19] | -0.10 | -0.17 | -0.27 | 8% | 53% |  | 
31 | COc1cc(OC)c2c(=O)cc(-c3ncco3)oc2c1 [compound 20] | -0.10 | -0.17 | -0.23 | 11% | 64% |  | 
32 | COc1cc(OC)c2c(=O)cc(-c3nnn[nH]3)oc2c1 [compound 22] | -0.23 | -0.27 | -0.43 | 13% | 53% |  | 
33 | COc1cc(OC)c2c(=O)cc(-c3ccn[nH]3)oc2c1 [compound 24] | -0.30 | -0.07 | -0.03 | 6% | 59% |  | 
34 | O=C(Oc1cc(O)c2c(=O)cc(-c3ccccc3)oc2c1)c1ccccc1 [compound 27] |  |  |  |  | 4% |  | 
35 | CC(=O)Oc1cc(O)c2c(=O)cc(-c3ccccc3)oc2c1 [compound 28] |  |  |  |  | 10% |  | 
36 | CCCCCC(=O)Oc1cc(O)c2c(=O)cc(-c3ccccc3)oc2c1 [compound 29] |  |  |  |  | 6% |  | 
37 | O=c1cc(-c2ccccc2)oc2cc(OCc3ccccc3)cc(O)c12 [compound 30] |  |  |  |  | 53% |  | 
38 | O=c1cc(-c2ccccc2)oc2cc(OCC3CC3)cc(O)c12 [compound 31] |  |  |  |  | 76% |  | 
39 | O=c1cc(-c2ccccc2)oc2cc(OCC3CCCC3)cc(O)c12 [compound 32] |  |  |  |  | 80% |  | 
40 | CCCCCOc1cc(O)c2c(=O)cc(-c3ccccc3)oc2c1 [compound 33] |  |  |  |  | 87% |  | 
41 | O=c1cc(-c2ccccc2)oc2cc(OCC3CCCCO3)cc(O)c12 (centres unmarked) [compound 34] |  |  |  |  | 28% |  | 
42 | O=c1cc(-c2ccccc2)oc2cc(OCc3cccnc3)cc(O)c12 [compound 35] |  |  |  |  | 87% |  | 
43 | COc1ccc(CNc2cc(O)c3c(=O)cc(-c4ccccc4)oc3c2)cc1 [compound 36] |  |  |  |  | 45% |  | 
44 | O=c1cc(-c2ccccc2)oc2cc(N3CCCC3)cc(O)c12 [compound 37] |  |  |  |  | 46% |  | 
45 | O=c1cc(-c2ccccc2)oc2cc(N3CCCCC3)cc(O)c12 [compound 38] |  |  |  |  | 88% |  | 
46 | O=c1cc(-c2ccccc2)oc2cc(N3CCOCC3)cc(O)c12 [compound 39] |  |  |  | 56% | 100% |  | 
47 | COc1cc(OCC(=O)O)c2c(=O)cc(-c3ccccc3)oc2c1 [compound 40] |  |  |  |  |  |  | 23%
48 | COc1cc(OC(C(=O)O)C(C)C)c2c(=O)cc(-c3ccccc3)oc2c1 (centres unmarked) [compound 47] |  |  |  |  |  |  | 7%
49 | COc1cc(OC(C(=O)O)c2ccccc2)c2c(=O)cc(-c3ccccc3)oc2c1 (centres unmarked) [compound 48] |  |  |  |  |  |  | 16%
50 | COc1cc(OC(C(=O)O)c2ccc(Cl)cc2)c2c(=O)cc(-c3ccccc3)oc2c1 (centres unmarked) [compound 49] |  |  |  |  |  |  | 27%
51 | COc1cc(OC(Cc2ccccc2)C(=O)O)c2c(=O)cc(-c3ccccc3)oc2c1 (centres unmarked) [compound 50] |  |  |  |  |  |  | 8%
